The test system of one data set is CETP mRNA. The data set is described as follows: Dose response, liver CETP mRNA in huCETP transgenic mice on Western diet (Example 9). It is filed as in vivo, human. The conditions noted are these: s.c. 6 weeks. As for the experimental part: Male transgenic mice were maintained on a 12-hour light/dark cycle and were fed ad libitum the Western diet (TD88137; 42% cal from fat, 0.2% cholesterol; Harlan Laboratories, Indianapolis, Ind.). Animals were acclimated for at least 7 days in the research facility before initiation of the experiment and were maintained on this diet throughout the study period. Antisense oligonucleotides (ASOs) were prepared in buffered saline (PBS) and sterilized by filtering through a 0.2 micron filter. Oligonucleotides were dissolved in 0.9% PBS for injection.
(§1) Another group received subcutaneous injections of control oligonucleotide ISIS 141923 at a dose of 50 mg/kg/week for 6 weeks. One group of mice received subcutaneous injections of PBS for 6 weeks. The PBS-injected group served as the control group to which treatment groups were compared.
Twenty four hours after the final dose, the animals were sacrificed and liver tissue was isolated. Liver RNA was isolated for real-time PCR analysis of CETP. The primer probe sets hCETP and hCETP2_LTS00182 were individually used to measure CETP levels. As presented in Table 43, treatment with ISIS 349517 reduced CETP mRNA expression in a dose-dependent manner. Both primer probe sets produced similar results. The RNA expression levels were normalized to murine Cyclophilin. The results are expressed as percent inhibition of CETP mRNA, relative to the PBS control.

The next data set relates to ApoA1. The data set is described as follows: Liver ApoA1 mRNA expression (Example 9). The data set is classed as in vivo, mice. The conditions noted are these: s.c. 6 weeks; for Percent inhibition of liver mRNA expression, ApoA1: percentage increase or decrease compared to PBS control. The method, then:
as §1
Liver RNA was isolated for real-time PCR analysis of ABCA1, ApoAI, and SR-B1. ATP-binding cassette transporter ABCA1 (member 1 of human transporter sub-family ABCA), also known as the cholesterol efflux regulatory protein (CERP) is a protein which in humans is encoded by the ABCA1 gene (Luciani, M. F. et al., Genomics. 1994. 21: 150-9). This transporter is a major regulator of cellular cholesterol and phospholipid homeostasis. Apolipoprotein A-I is a protein that in humans is encoded by the APOA1 gene (Breslow, J. L. et al., Proc. Natl. Acad. Sci. USA 1982. 79: 6861-5). Apolipoprotein A-I is the major protein component of HDL in plasma. The protein promotes cholesterol efflux from tissues to the liver for excretion. Scavenger receptor class B, type I (SR-BI) is an integral membrane protein found in numerous cell types/tissues, including the liver and adrenal (Acton, S. L. et al., J. Biol. Chem. 1994. 269: 21003-21009). It is best known for its role in facilitating the uptake of cholesteryl esters from high-density lipoproteins in the liver. Therefore, all three genes have a role in HDL regulation.
The primer probe set RTS1204 (forward sequence […], designated herein as SEQ ID NO: 122, reverse sequence […], designated herein as SEQ ID NO: 123, probe sequence AGGCCCAGACCTGTAAAGGCGAAGX, with X a fluorophore, designated herein as SEQ ID NO: 124) was used to measure abca1 levels. The primer probe set RTS14737 (forward sequence […], designated herein as SEQ ID NO: 125, reverse sequence […], designated herein as SEQ ID NO: 126, probe sequence CTGCAGGAACGGCTGGGCCCX, with X a fluorophore, designated herein as SEQ ID NO: 127) was used to measure apoA1 levels. The primer probe set mSRB-1 (forward sequence […], designated herein as SEQ ID NO: 128, reverse sequence ATGCGACTTGTCAGGCTGG, designated herein as SEQ ID NO: 129, probe sequence CGTGGAGAACCGCAGCCTCCATTX, with X a fluorophore, designated herein as SEQ ID NO: 130) was used to measure sr-b1 levels. The results are presented in Table 44 as percentage increase or decrease in the respective expression levels compared to the PBS control. Both primer probe sets produced similar results. The RNA expression levels were normalized to murine Cyclophilin. Treatment with ISIS 349517 caused an increase in ApoA1 and SR-B1 levels.

The nature of data set [1]: Body and organ weights of huCETP transgenic mice (Example 5). It is filed as in vivo. The following applies: 50 mg/kg i.p. twice per week. As for the experimental part: The mice were divided into five treatment groups. The first four groups received intraperitoneal injections of ISIS 349511, ISIS 349512, ISIS 349515, or ISIS 349517 at a dose of 50 mg/kg twice per week for 6 weeks. The fifth group received intraperitoneal injections of saline twice weekly for 6 weeks.
The body weights of the mice were measured pre-dose and regularly during the treatment period. The body weights are presented in Table 10, and are expressed in grams.

Data set [2] has as its system human CETP mRNA. The data set is described as follows: Dose-dependent antisense inhibition of human CETP in SW872 liposarcoma cells (Example 2). The data set is classed as cell-based. The following applies: Lipofectin, ~16 hours (Example 2). As for the experimental part: Cells were plated at a density of 50,000 cells per well in a 24-well plate and transfected using Lipofectin reagent with 50 nM, 150 nM, and 300 nM concentrations of each antisense oligonucleotide. After approximately 16 hours, RNA was isolated from the cells and CETP mRNA levels were measured by quantitative real-time PCR. CETP mRNA levels were normalized to total RNA content, as measured by the house-keeping gene, GAPDH mRNA levels. Results are presented in Table 4 as percent inhibition of CETP, relative to untreated control cells.

Data set [3] has as its system human CETP mRNA. The data set is described as follows: Antisense inhibition of human CETP mRNA in primary hepatocytes from huCETP transgenic mice (Example 4). The following applies: cytofectin, ~24 hours. It is filed as cell-based, mouse. The procedure, abridged:
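Primary hepatocytes from human CETP transgenic mice, 17,500 cells/well, transfected by cytofectin with 100 nM or 200 nM antisense oligonucleotide. After about 24 h, CETP mRNA quantified by real-time PCR, normalised to GAPDH, as percent inhibition versus untreated cells.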

e = 2'-O-(2-methoxyethyl) (MOE); d = 2'-deoxy (DNA)

“ISIS 141923: CCTTCCCTGAAGGTTCCTCC, 5-10-5 MOE gapmer, a control oligonucleotide which has no known murine target (sugars from the 5' end e5 d10 e5, backbone and methylation of C not given here) [reference compound]”: in the data set on CETP mRNA (Dose 50 mg/kg/wk), the “Percent inhibition of liver CETP mRNA expression, PPset hCETP” value is on record as 0% and the “Percent inhibition of liver CETP mRNA expression, PPset hCETP2_LTS00182” value is reported as 0%. In the data set with ApoA1 (Dose 50 mg/kg/wk), the “Percent inhibition of liver mRNA expression, ApoA1” value is given as −50%.

Turning to “ISIS 349517: 5-10-5 MOE gapmer CAGCACTTTAATGCCAGTGG (sugars from the 5' end e5 d10 e5, backbone and methylation of C not given here)”, the Body weights in data set [1] (Week 0) is 25 grams; in data set [1] (Week 1), 27 grams; in data set [1] (Week 2), 28 grams; in data set [1] (Week 4), 28 grams; in data set [1] (week 6) it was 29 grams. Further, the “Organ weights, Kidney” value in data set [1] (week 6) is listed as 355.5 mg. For the same substance, in data set [1] (week 6), the “Organ weights, Liver” value is 1.7 g. For the same substance, the “Organ weights, Spleen” value in data set [1] (week 6) is 89.0 mg. Also, the “percent inhibition of CETP” value was determined as 100% in the data set with human CETP mRNA [2] (50 nM), 98% in the data set on human CETP mRNA [2] (150 nM) and 98% in the data set on human CETP mRNA [2] (300 nM). Also, the “Percent inhibition of liver CETP mRNA expression, PPset hCETP” value stood at 59% in the data set with CETP mRNA (Dose 1.5 mg/kg/wk), 87% with CETP mRNA (Dose 5 mg/kg/wk), 91% in the data set on CETP mRNA (Dose 15 mg/kg/wk) and 92% with CETP mRNA (Dose 50 mg/kg/wk). For the same substance, the “Percent inhibition of liver CETP mRNA expression, PPset hCETP2_LTS00182” value with CETP mRNA (Dose 1.5 mg/kg/wk) stood at 59%; with CETP mRNA (Dose 5 mg/kg/wk) it was 87%; in the data set with CETP mRNA (Dose 15 mg/kg/wk), 95%; in the data set with CETP mRNA (Dose 50 mg/kg/wk) it was 96%. The “Percent inhibition of human CETP mRNA” value in the data set on human CETP mRNA [3] (100 nM) is listed as 85%; in the data set with human CETP mRNA [3] (200 nM), 98%. In the data set on ApoA1 (huCETP transgenic mice, Western diet), the “ApoA1 levels (liver mRNA)” value was “increase”. Further, the “Percent inhibition of liver mRNA expression, ApoA1” value with ApoA1 (Dose 1.5 mg/kg/wk) is reported as −34%; in the data set with ApoA1 (Dose 5 mg/kg/wk), −13%; in the data set on ApoA1 (Dose 15 mg/kg/wk), “+52%”; in the data set on ApoA1 (Dose 50 mg/kg/wk) it was “+136%”.

On to “ISIS 349511: 5-10-5 MOE gapmer CCCGACCTCCTTGGAGACTT (sugars from the 5' end e5 d10 e5, backbone and methylation of C not given here)”, for which the Body weights came out at 19 grams in data set [1] (Week 0); 21 grams in data set [1] (Week 1); 23 grams in data set [1] (Week 2); 25 grams in data set [1] (Week 4); 26 grams in data set [1] (week 6). In addition, the “Organ weights, Kidney” value in data set [1] (week 6) is reported as 312.5 mg. In addition, the “Organ weights, Liver” value in data set [1] (week 6) is given as 1.3 g. The “Organ weights, Spleen” value in data set [1] (week 6) is reported as 76.0 mg. Besides, the “Percent inhibition of human CETP mRNA” value is given as 74% with human CETP mRNA [3] (100 nM) and 95% with human CETP mRNA [3] (200 nM).

For the origin of these results see patent US20130053430A1, “MODULATION OF CETP EXPRESSION” (Isis Pharmaceuticals, Inc., priority 2010, published 2013).
